Literature values, collected in US20250375409A1, “Treatment of REM Behavior Disorder” (Vanda Pharmaceuticals Inc., priority 2024, published 2025).

Legend:
[1] = following an oral dose; large first pass effect

For `CCC(=O)NCC[C@@H]1CCc2ccc3c(c21)CCO3` [ramelteon], the mean systemic availability [1] is listed as “less than 2%”, the “RBD outcome in open label trial” value (Esaki et al., 12 patients with idiopathic RBD, 8 mg given 30 minutes before bedtime) is listed as “trend towards improvement” and the “RBD symptoms, including the RBD severity scale (RBDSS)” value (Nomura et al. 2013, 8 mg, two patients with RBD in association with Parkinsonian syndromes) is listed as “improvement of their RBD symptoms”. The “RBD outcome in patients with Parkinson's disease” value (patients with Parkinson's disease, with or without RBD, after treatment) was “statistically significant RBD improvement”.
